The NIST ThermoML archive (doi:10.1021/je0601098)
± gives the expanded uncertainty stated by the source.

Experiments:
[1] = 298.15 K, 101 kPa, Liquid; for speed of sound: Linear variable-path acoustic interferometer
[2] = mn = molality of the nth substance listed, in mol/kg; details: 298.15 K, 101 kPa, Liquid; for speed of sound: Linear variable-path acoustic interferometer

CCO [ethanol]
[1]
Details	mass density [kg/m3]	speed of sound [m/s]
–	785.207 ± 0.58	1142.1 ± 1.8

CCO [ethanol] + O
[2]
Details	mass density [kg/m3]	speed of sound [m/s]
m2 = 0	785.207 ± 0.58	1142.1 ± 1.8
m2 = 0.214	786.407 ± 0.58	1144.6 ± 1.8
m2 = 0.2705	786.72 ± 0.58	1145.9 ± 1.8
m2 = 0.3199	786.998 ± 0.58	1146.8 ± 1.8
m2 = 0.3659	787.262 ± 0.58	1148.6 ± 1.8
m2 = 0.4543	787.753 ± 0.58	1151 ± 1.8
m2 = 0.5541	788.3 ± 0.58	1153.2 ± 1.8
m2 = 0.6437	788.782 ± 0.58	1154.8 ± 1.8
m2 = 0.743	789.321 ± 0.58	1156.4 ± 1.8
m2 = 0.8349	789.775 ± 0.58	1157.7 ± 1.8
m2 = 0.9264	790.279 ± 0.58	1159.5 ± 1.8
m2 = 1.019	790.734 ± 0.58	1160.1 ± 1.8

CO [methanol]
[1]
Details	mass density [kg/m3]	speed of sound [m/s]
–	786.66 ± 0.58	1103.8 ± 1.8

CO [methanol] + O
[2]
Details	mass density [kg/m3]	speed of sound [m/s]
m2 = 0	786.66 ± 0.58	1103.8 ± 1.8
m2 = 0.1566	787.454 ± 0.58	1106 ± 1.8
m2 = 0.2143	787.724 ± 0.58	1106.2 ± 1.8
m2 = 0.2641	788.016 ± 0.58	1106.2 ± 1.8
m2 = 0.3211	788.308 ± 0.58	1107.2 ± 1.8
m2 = 0.4121	788.789 ± 0.58	1107.9 ± 1.8
m2 = 0.5085	789.27 ± 0.58	1109.8 ± 1.8
m2 = 0.6159	789.834 ± 0.58	1112.6 ± 1.8
m2 = 0.7089	790.308 ± 0.58	1113.4 ± 1.8
m2 = 0.8074	790.823 ± 0.58	1114.4 ± 1.8
m2 = 0.9136	791.368 ± 0.58	1117.1 ± 1.8
m2 = 1.018	791.86 ± 0.57	1118 ± 1.8

CCCO [propan-1-ol]
[1]
Details	mass density [kg/m3]	speed of sound [m/s]
–	799.683 ± 0.56	1207 ± 1.9

CCCO [propan-1-ol] + O
[2]
Details	mass density [kg/m3]	speed of sound [m/s]
m2 = 0	799.683 ± 0.56	1207 ± 1.9
m2 = 0.1627	800.472 ± 0.56	1209 ± 1.9
m2 = 0.217	800.732 ± 0.56	1209.9 ± 1.9
m2 = 0.2635	800.961 ± 0.56	1210.1 ± 1.9
m2 = 0.3129	801.185 ± 0.56	1211.5 ± 1.9
m2 = 0.4209	801.664 ± 0.56	1213 ± 1.9
m2 = 0.5137	802.083 ± 0.56	1213.4 ± 1.9
m2 = 0.6196	802.528 ± 0.56	1214.7 ± 1.9
m2 = 0.7183	802.982 ± 0.56	1215.8 ± 1.9
m2 = 0.8205	803.412 ± 0.56	1217.2 ± 1.9
m2 = 0.9191	803.833 ± 0.56	1218.1 ± 1.9
m2 = 1.005	804.252 ± 0.56	1219.3 ± 1.9

C1CCOC1 [tetrahydrofuran]
[1]
Details	mass density [kg/m3]	speed of sound [m/s]
–	882.056 ± 0.47	1280.2 ± 1.9

C1CCOC1 [tetrahydrofuran] + O
[2]
Details	mass density [kg/m3]	speed of sound [m/s]
m2 = 0	882.056 ± 0.47	1280.2 ± 1.9
m2 = 0.1301	882.394 ± 0.46	1281.2 ± 1.9
m2 = 0.1845	882.536 ± 0.46	1281.7 ± 1.9
m2 = 0.2263	882.674 ± 0.46	1282 ± 1.9
m2 = 0.244	882.753 ± 0.46	1282.4 ± 1.9
m2 = 0.3258	882.981 ± 0.46	1282.9 ± 1.9
m2 = 0.4247	883.242 ± 0.46	1283.2 ± 1.9
m2 = 0.525	883.543 ± 0.46	1283.9 ± 1.9
m2 = 0.6245	884.032 ± 0.46	1284.6 ± 1.9
m2 = 0.7309	884.381 ± 0.46	1285.1 ± 1.9
m2 = 0.8254	884.726 ± 0.46	1286 ± 1.9
m2 = 0.9243	885.015 ± 0.46	1287 ± 1.9
m2 = 1.029	885.427 ± 0.46	1288 ± 1.9
